According to US10208033B2, “β-carboline, dihydro-β-carboline and tetrahydro-β-carboline alkaloid derivatives and preparation methods same and use in aspects of preventing and treating plant viruses, fungicides and insecticides” (NANKAI UNIVERSITY, priority 2013, dated 2019):
Counter-ions that a name gives are not always drawn. Like-named read-outs stand apart in the source and are kept apart here.

What was measured:
Sclerotinia scleotiorum = test: Fungicidal (bactericidal) activity in vitro, PDA colony diameter; type: cell-based; details: 50 mg/kg
Macrophoma kawatsukai = test: as above; type: cell-based; details: 50 mg/kg
potato late blight = test: microbe, parasite or virus in culture; type: cell-based
Cercospora arachidicola = test: Fungicidal (bactericidal) activity in vitro, PDA colony diameter; type: cell-based; details: 50 mg/kg
armyworms = type: in vivo; details: concentration 600 mg/kg
cotton bollworms = test: whole plant or invertebrate; details: concentration 600 mg/kg
Protocol: Experimental method of cotton bollworms: feed and drug mixing method: measure 3 mL of prepared solution and add it to about 27 g of newly prepared feed, thereby obtaining needed concentration through dilution by 10 times.

Botrytis cinerea = test: Fungicidal (bactericidal) activity in vitro, PDA colony diameter; type: cell-based; details: 50 mg/kg
Rhizoctonia cereali = test: as above; type: cell-based; details: 50 mg/kg
[1] = system: tobacco mosaic virus (TMV); test: Anti-TMV in vivo protective effect; design: species or system tobacco mosaic virus (host Nicotiana tabacum L.cv.Xanthi NN)
Rhizoctonia solani = test: Fungicidal (bactericidal) activity in vitro, PDA colony diameter; type: cell-based; details: 50 mg/kg
mosquito larvae = test: whole plant or invertebrate; details: concentration 10 mg/kg, 24 h
Protocol: Experimental method of mosquito larvae: culex pipiens pallens, a normal colony raised indoors. Weigh about 5 mg of the compound for test, put it in a penicillin vial, add 5 mL of acetone (or an appropriate solvent), and shake and dissolve it to obtain a 1000 ppm mother solution. Pipette 0.5 mL of the mother solution, add it to a 100 mL beaker filled with 89.9 mL of water, select 10 mosquito larvae at the beginning of the fourth instar, and pour them to a beaker together with 10 mL of feeding solution. The concentration of the drug solution is 5 ppm. […] Use an aqueous solution containing 0.5 mL of test solvent as a blank.

Phytophthora capsici = test: Fungicidal (bactericidal) activity in vitro, PDA colony diameter; type: cell-based; details: 50 mg/kg
Bipolaria maydis = test: organism not typed; type: cell-based; details: 50 mg/kg
Alternaria solani = test: Fungicidal (bactericidal) activity in vitro, PDA colony diameter; type: cell-based; details: 50 mg/kg
[2] = system: tobacco mosaic virus (TMV); test: Anti-TMV in vivo therapeutic effect; design: species or system tobacco mosaic virus (host Nicotiana tabacum L.cv.Xanthi NN)
corn borers = details: concentration 600 mg/kg
Fusarium fujikuroi = test: Fungicidal (bactericidal) activity in vitro, PDA colony diameter; type: cell-based; details: 50 mg/kg
[3] = system: tobacco mosaic virus (TMV); test: Anti-TMV in vitro effect (half-leaf soaking); type: cell-based, tobacco mosaic virus (host Nicotiana tabacum L.cv.Xanthi NN)
cucumber fusarium wilt = test: Fungicidal (bactericidal) activity in vitro, PDA colony diameter; type: cell-based; details: 50 mg/kg
[4] = system: Colletotrichum orbiculare; test: as above; type: cell-based; details: 50 mg/kg
Fusarium graminearumt = test: microbe, parasite or virus in culture; type: cell-based; details: 50 mg/kg
[5] = system: tobacco mosaic virus (TMV); test: Anti-TMV in vivo inactivation; design: species or system tobacco mosaic virus (host Nicotiana tabacum L.cv.Xanthi NN)

SMILES	Bactericidal activity (%) Sclerotinia scleotiorum (Sclerotinia scleotiorum)	Bactericidal activity (%) Macrophoma kawatsukai (Macrophoma kawatsukai)	Bactericidal activity (%) Cercospora arachidicola (Cercospora arachidicola)	Armyworm Mortality (%) (armyworms)	Cotton bollworm Mortality (%) (cotton bollworms)	Bactericidal activity (%) Botrytis cinerea (Botrytis cinerea)	Bactericidal activity (%) Rhizoctonia cereali (Rhizoctonia cereali)	Relative inhibition rate (%) In vivo protection ([1]; treatment dose 100 μg/mL)	Relative inhibition rate (%) In vivo protection ([1]; treatment dose 500 μg/mL)	Bactericidal activity (%) Rhizoctonia solani (Rhizoctonia solani)	Mosquito larvae Mortality (%) (mosquito larvae)	Bactericidal activity (%) Phytophthora capsici (Phytophthora capsici)	Bactericidal activity (%) Bipolaria maydis (Bipolaria maydis)	Bactericidal activity (%) Alternaria solani (Alternaria solani)	Relative inhibition rate (%) In vivo therapy ([2]; treatment dose 100 μg/mL)	Relative inhibition rate (%) In vivo therapy ([2]; treatment dose 500 μg/mL)	Corn borer Mortality (%) (corn borers)	Bactericidal activity (%) Fusarium fujikuroi (Fusarium fujikuroi)	Relative inhibition rate (%) In vitro activity ([3]; treatment dose 100 μg/mL)	Relative inhibition rate (%) In vitro activity ([3]; treatment dose 500 μg/mL)	also measured
CCOC(=O)C1Cc2c([nH]c3ccccc23)CN1 (centres unmarked) [Ib-9, 2,3,4,9-tetrahydropyridino [3,4-b] indol-3-ethyl formate]	19.6%	21.4%	84.6%	15%	10%	12.1%	44.7%	17.2%	40.4%	35.5%	35%	15.6%	22.7%	26.3%	14.3%	42.7%	10%	14.3%	12.8%	44.5%	Bactericidal activity (%) potato late blight (potato late blight): 22.7%; Bactericidal activity (%) Cucumber fusarium wilt (cucumber fusarium wilt): 19.2%; Bactericidal activity (%) Colletotrichum orbiculare [4]: 42.9%; Bactericidal activity (%) Fusarium graminearumt (Fusarium graminearumt): 35.7%; Relative inhibition rate (%) In vivo inactivation ([5]; treatment dose 100 μg/mL): 16.9%; Relative inhibition rate (%) In vivo inactivation ([5]; treatment dose 500 μg/mL): 41%
Cc1nc(/C=C/C(=O)O)cc2c1[nH]c1ccccc12 [Ia-14, (E)-3-(1-methyl-pyridino [3,4-b]indol-3)-acrylic acid]	9.8%	47.6%	84.6%	25%	30%	12.1%	63.2%	0%	28.4%	39.5%	35%	18.8%	22.7%	10.5%	0%	21.5%	20%	28.6%	0%	25.8%	Bactericidal activity (%) potato late blight (potato late blight): 22.7%; Bactericidal activity (%) Cucumber fusarium wilt (cucumber fusarium wilt): 23.1%; Bactericidal activity (%) Colletotrichum orbiculare [4]: 25.0%; Bactericidal activity (%) Fusarium graminearumt (Fusarium graminearumt): 14.3%; Relative inhibition rate (%) In vivo inactivation ([5]; treatment dose 100 μg/mL): 0%; Relative inhibition rate (%) In vivo inactivation ([5]; treatment dose 500 μg/mL): 18.4%
CCOC(=O)c1cc2c([nH]c3ccccc32)c(C)n1 [Ia-10, 1-methyl-pyridino [3,4-b] indol-3-ethyl formate]	68.0%	52.9%	35.7%	30%	40%	13.6%	78.1%	0%	23.7%	39.3%	65%	51.5%	36.8%	61.1%	0%	28.8%	30%	35.7%	0%	33.3%	Bactericidal activity (%) potato late blight (potato late blight; 50 mg/kg): 35.0%; Bactericidal activity (%) Cucumber fusarium wilt (cucumber fusarium wilt): 23.8%; Bactericidal activity (%) Colletotrichum orbiculare [4]: 47.6%; Bactericidal activity (%) Fusarium graminearumt (Fusarium graminearumt): 71.4%; Relative inhibition rate (%) In vivo inactivation ([5]; treatment dose 100 μg/mL): 0%; Relative inhibition rate (%) In vivo inactivation ([5]; treatment dose 500 μg/mL): 26.3%
COc1ccccc1C=NNC(=O)[C@@H]1Cc2c([nH]c3ccccc23)[C@H](C)N1 [Ic-10, (1S, 3S)—N′-(2-methoxybenzylidene)-1-methyl-2,3,4,9-tetrahydropyridino [3,4-b] indol-3-formylhydrazine]	64.7%	88.9%	23.5%	25%	30%	77.3%	78.4%	0%	34.8%	32.9%	50%	63.2%	56.0%	45.0%	10.9%	36.4%	30%	21.4%	0%	38.5%	Bactericidal activity (%) potato late blight (potato late blight): 44.0%; Bactericidal activity (%) Cucumber fusarium wilt (cucumber fusarium wilt): 26.9%; Bactericidal activity (%) Colletotrichum orbiculare [4]: 40.7%; Bactericidal activity (%) Fusarium graminearumt (Fusarium graminearumt): 72.4%; Relative inhibition rate (%) In vivo inactivation ([5]; treatment dose 100 μg/mL): 0%; Relative inhibition rate (%) In vivo inactivation ([5]; treatment dose 500 μg/mL): 43.2%
